Test results from the supplement of paper PMC11451515.

Tested on: NOMO1
Assay: cell viability relative to DMSO control; higher = less cytotoxic
Settings: 48 h
Procedure, shortened: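 Viability values are per-plate percentages of DMSO wells, with background from cell-free wells. Library compounds in DMSO were pin-dosed, in an 11-point threefold series from 47 μM to 0.79 nM, onto NOMO1 or SEM (500 cells/well) or P12-Ichikawa (1000 cells/well) leukemia cells in 1536-well plates (5 μl). Those cells had been adapted for at least four passages in each medium, and CellTiter-Glo One luminescence was read after 48 h at 37°C.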

[1] = RPMI 5 mM glucose + 10% FBS, 0.000781 µM
[2] = RPMI 5 mM glucose + 10% FBS, 0.00234 µM
[3] = RPMI 5 mM glucose + 10% FBS, 0.00702 µM
[4] = RPMI 5 mM glucose + 10% FBS, 0.0211 µM
[5] = RPMI 5 mM glucose + 10% FBS, 0.0632 µM
[6] = RPMI 5 mM glucose + 10% FBS, 0.19 µM
[7] = RPMI 5 mM glucose + 10% FBS, 0.569 µM
[8] = RPMI 5 mM glucose + 10% FBS, 1.71 µM
[9] = RPMI 5 mM glucose + 10% FBS, 5.12 µM
[10] = RPMI 5 mM glucose + 10% FBS, 15.4 µM
[11] = RPMI 5 mM glucose + 10% FBS, 46.1 µM
[12] = HPLM + 10% dialyzed FBS, 0.000781 µM
[13] = HPLM + 10% dialyzed FBS, 0.00234 µM
[14] = HPLM + 10% dialyzed FBS, 0.00702 µM
[15] = HPLM + 10% dialyzed FBS, 0.0211 µM
[16] = HPLM + 10% dialyzed FBS, 0.0632 µM
[17] = HPLM + 10% dialyzed FBS, 0.19 µM
[18] = HPLM + 10% dialyzed FBS, 0.569 µM
[19] = HPLM + 10% dialyzed FBS, 1.71 µM
[20] = HPLM + 10% dialyzed FBS, 5.12 µM
[21] = HPLM + 10% dialyzed FBS, 15.4 µM
[22] = HPLM + 10% dialyzed FBS, 46.1 µM
[23] = RPMI 5 mM glucose + 10% dialyzed FBS, 0.000781 µM
[24] = RPMI 5 mM glucose + 10% dialyzed FBS, 0.00234 µM
[25] = RPMI 5 mM glucose + 10% dialyzed FBS, 0.00702 µM
[26] = RPMI 5 mM glucose + 10% dialyzed FBS, 0.0211 µM
[27] = RPMI 5 mM glucose + 10% dialyzed FBS, 0.0632 µM
[28] = RPMI 5 mM glucose + 10% dialyzed FBS, 0.19 µM
[29] = RPMI 5 mM glucose + 10% dialyzed FBS, 0.569 µM
[30] = RPMI 5 mM glucose + 10% dialyzed FBS, 1.71 µM
[31] = RPMI 5 mM glucose + 10% dialyzed FBS, 5.12 µM
[32] = RPMI 5 mM glucose + 10% dialyzed FBS, 15.4 µM
[33] = RPMI 5 mM glucose + 10% dialyzed FBS, 46.1 µM

`CC(C)c1ccc2oc3nc(N)c(C(=O)O)cc3c(=O)c2c1` gave a cell viability [1] of 121%, a cell viability [2] of 121% and a cell viability [3] of 128%. It also gave a cell viability [4] of 137%, a cell viability [5] of 136% and a cell viability [6] of 128%. The cell viability [7] was 123%, the cell viability [8] was 134% and the cell viability [9] was 133%. It also gave a cell viability [10] of 130% and a cell viability [11] of 122%.
`CN1[C@@H]2CC(O)C[C@H]1[C@@H]1O[C@@H]12` (some centres undefined) gave a cell viability [1] of 111%, a cell viability [2] of 125% and a cell viability [3] of 121%. For the same compound, the cell viability [4] was 121%, the cell viability [5] was 113% and the cell viability [6] was 118%. The cell viability [7] was 103%, the cell viability [8] was 113% and the cell viability [9] was 121%. For the same compound, the cell viability [10] was 111% and the cell viability [11] was 6.78%.
For `NC\1=N\C(=O)N(\C=N1)[C@H]2C[C@H](O)[C@@H](CO)O2`, the cell viability [12] was 110%, the cell viability [13] was 138% and the cell viability [14] was 101%. For the same compound, the cell viability [15] was 115%, the cell viability [16] was 101% and the cell viability [17] was 107%. It also gave a cell viability [18] of 91.4%, a cell viability [19] of 82.4% and a cell viability [20] of 60.2%. The cell viability [21] was 46.5%, the cell viability [22] was 43.6% and the cell viability [1] was 91.8%. For the same compound, the cell viability [2] was 106%, the cell viability [3] was 89.6% and the cell viability [4] was 92.8%. The cell viability [5] was 93.4%, the cell viability [6] was 93.7% and the cell viability [7] was 98.9%. The cell viability [8] was 85.4%, the cell viability [9] was 71.1% and the cell viability [10] was 51.8%. For the same compound, the cell viability [11] was 31.5%, the cell viability [23] was 109% and the cell viability [24] was 122%. For the same compound, the cell viability [25] was 107%, the cell viability [26] was 112% and the cell viability [27] was 98.6%. It also gave a cell viability [28] of 109%, a cell viability [29] of 114% and a cell viability [30] of 96.7%. For the same compound, the cell viability [31] was 76.5%, the cell viability [32] was 65.9% and the cell viability [33] was 36.1%.
Work on `CC(Oc1ccc(O)cc1)(P(=O)(O)O)P(=O)(O)O` yielded a cell viability [12] of 94.2%, a cell viability [13] of 115% and a cell viability [14] of 91.7%. For the same compound, the cell viability [15] was 92.8%, the cell viability [16] was 99.5% and the cell viability [17] was 93.5%. The cell viability [18] was 91.3%, the cell viability [19] was 85.8% and the cell viability [20] was 103%. For the same compound, the cell viability [21] was 42.6%, the cell viability [22] was 17.3% and the cell viability [1] was 91.6%. It also gave a cell viability [2] of 88%, a cell viability [3] of 87.4% and a cell viability [4] of 83.7%. For the same compound, the cell viability [5] was 94.8%, the cell viability [6] was 101% and the cell viability [7] was 90.4%. For the same compound, the cell viability [8] was 85.7%, the cell viability [9] was 78.5% and the cell viability [10] was 73.7%. For the same compound, the cell viability [11] was 14.6%, the cell viability [23] was 94.8% and the cell viability [24] was 100%. For the same compound, the cell viability [25] was 87.9%, the cell viability [26] was 93% and the cell viability [27] was 84.9%. It also gave a cell viability [28] of 95.8%, a cell viability [29] of 92% and a cell viability [30] of 91%. For the same compound, the cell viability [31] was 83.9%, the cell viability [32] was 64.8% and the cell viability [33] was 14.4%.
`C[C@@H]1CN(CC(=O)N2CC(C)(C)c3ncc(Cc4ccc(F)cc4)cc32)[C@@H](CN2CCOC[C@H]2C)CN1` was tested, and the cell viability [12] was 100%, the cell viability [13] was 117% and the cell viability [14] was 145%. It also gave a cell viability [15] of 112%, a cell viability [16] of 129% and a cell viability [17] of 114%. For the same compound, the cell viability [18] was 112%, the cell viability [19] was 103% and the cell viability [20] was 109%. For the same compound, the cell viability [21] was 84%, the cell viability [22] was 46.4% and the cell viability [1] was 96.9%. It also gave a cell viability [2] of 120%, a cell viability [3] of 121% and a cell viability [4] of 111%. The cell viability [5] was 117%, the cell viability [6] was 121% and the cell viability [7] was 102%. It also gave a cell viability [8] of 109%, a cell viability [9] of 103% and a cell viability [10] of 95.3%. The cell viability [11] was 91.4%, the cell viability [23] was 95.4% and the cell viability [24] was 119%. For the same compound, the cell viability [25] was 117%, the cell viability [26] was 119% and the cell viability [27] was 111%. For the same compound, the cell viability [28] was 114%, the cell viability [29] was 111% and the cell viability [30] was 106%. It also gave a cell viability [31] of 105%, a cell viability [32] of 98.2% and a cell viability [33] of 69.3%.
`CN1C(=O)COc2c(C(=O)NC3CN4CCC3CC4)cc(Cl)cc21` (centres undefined) gave a cell viability [12] of 68.8%, a cell viability [13] of 121% and a cell viability [14] of 112%. For the same compound, the cell viability [15] was 107%, the cell viability [16] was 105% and the cell viability [17] was 104%. For the same compound, the cell viability [18] was 119%, the cell viability [19] was 109% and the cell viability [20] was 104%. It also gave a cell viability [21] of 111%, a cell viability [22] of 108% and a cell viability [1] of 90.2%. For the same compound, the cell viability [2] was 106%, the cell viability [3] was 94.2% and the cell viability [4] was 88.8%. The cell viability [5] was 110%, the cell viability [6] was 109% and the cell viability [7] was 99%. It also gave a cell viability [8] of 92.1%, a cell viability [9] of 90.6% and a cell viability [10] of 105%. The cell viability [11] was 85.6%, the cell viability [23] was 104% and the cell viability [24] was 102%. For the same compound, the cell viability [25] was 106%, the cell viability [26] was 93.2% and the cell viability [27] was 97.1%. It also gave a cell viability [28] of 91.6%, a cell viability [29] of 97.6% and a cell viability [30] of 89.7%. The cell viability [31] was 90.5%, the cell viability [32] was 85.8% and the cell viability [33] was 97.7%.
`Cc1cnc(Nc2ccc(OCCN3CCCC3)cc2)nc1Nc1cccc([S+](=O)([O-])NC(C)(C)C)c1` gave a cell viability [12] of 78.8%, a cell viability [13] of 102% and a cell viability [14] of 109%. For the same compound, the cell viability [15] was 116%, the cell viability [16] was 117% and the cell viability [17] was 126%. It also gave a cell viability [18] of 102%, a cell viability [19] of 114% and a cell viability [20] of 110%. It also gave a cell viability [21] of 100%, a cell viability [22] of 84.3% and a cell viability [1] of 105%. It also gave a cell viability [2] of 107%, a cell viability [3] of 104% and a cell viability [4] of 90.3%. The cell viability [5] was 108%, the cell viability [6] was 110% and the cell viability [7] was 98%. For the same compound, the cell viability [8] was 97.3%, the cell viability [9] was 114% and the cell viability [10] was 92.7%. The cell viability [11] was 102%, the cell viability [23] was 87.5% and the cell viability [24] was 106%. The cell viability [25] was 99.6%, the cell viability [26] was 105% and the cell viability [27] was 100%. For the same compound, the cell viability [28] was 102%, the cell viability [29] was 103% and the cell viability [30] was 102%. For the same compound, the cell viability [31] was 103%, the cell viability [32] was 102% and the cell viability [33] was 100%.
Compound `COC(=O)N[C@H](C(=O)N[C@@H](Cc1ccccc1)[C@@H](O)CN(Cc1ccc(-c2ccccn2)cc1)NC(=O)[C@@H](NC(=O)OC)C(C)(C)C)C(C)(C)C` has a cell viability [1] of 101%, a cell viability [2] of 105% and a cell viability [3] of 113%. The cell viability [4] was 100%, the cell viability [5] was 106% and the cell viability [6] was 103%. For the same compound, the cell viability [7] was 114%, the cell viability [8] was 110% and the cell viability [9] was 111%. The cell viability [10] was 97.8%, the cell viability [11] was 93.4% and the cell viability [23] was 112%. The cell viability [24] was 102%, the cell viability [25] was 114% and the cell viability [26] was 116%. For the same compound, the cell viability [27] was 113%, the cell viability [28] was 103% and the cell viability [29] was 97.3%. The cell viability [30] was 101%, the cell viability [31] was 110% and the cell viability [32] was 101%. It also gave a cell viability [33] of 94.9%.
